# Reference: patent US4226980A, “Novel derivatives of fortimicin B and process for preparing same” (Abbott Laboratories, priority 1978, dated 1980)
# Where two headings read alike, the source gives them in different places.
# How the values were obtained:
# [1] = test system: Bacillus subtilis ATCC 6633; assay: antibacterial activity (MIC); format: cell-based; conditions: medium pH 7.2, Japanese Antibiotic Medicament Standard; unit assumed
# Procedure: (§1) Furthermore in the following Table 3, the antibacterial activity (MIC) of the compounds are set forth. The measurement was carried out according to the Japanese Antibiotic Medicament Standard using a medium having a pH of 7.2. Numbers of the compounds in Table 3 correspond to those in Tables 1 and 2.
# Escherichia coli 3100 = assay: antibacterial activity (MIC); format: cell-based; conditions: medium pH 7.2, Japanese Antibiotic Medicament Standard; unit assumed
# Procedure: as §1
# Escherichia coli NIHJ-2 = assay: antibacterial activity (MIC); format: cell-based; conditions: medium pH 7.2, Japanese Antibiotic Medicament Standard; unit assumed
# Procedure: as §1
# [2] = test system: Klebsiella pneumoniae #8045; assay: antibacterial activity (MIC); format: cell-based; conditions: medium pH 7.2, Japanese Antibiotic Medicament Standard; unit assumed
# Procedure: as §1
# Providencia sp. KY3950 = assay: antibacterial activity (MIC); format: cell-based; conditions: medium pH 7.2, Japanese Antibiotic Medicament Standard; unit assumed
# Procedure: as §1
# [3] = test system: Pseudomonas aeruginosa BMH#10; assay: antibacterial activity (MIC); format: cell-based; conditions: medium pH 7.2, Japanese Antibiotic Medicament Standard; unit assumed
# Procedure: as §1
# [4] = test system: Shigella sonnei ATCC 9290; assay: antibacterial activity (MIC); format: cell-based; conditions: medium pH 7.2, Japanese Antibiotic Medicament Standard; unit assumed
# Procedure: as §1
# [5] = test system: Staphylococcus aureus 209-p; assay: antibacterial activity (MIC); format: cell-based; conditions: medium pH 7.2, Japanese Antibiotic Medicament Standard; unit assumed
# Procedure: as §1
# [6] = test system: Staphylococcus aureus Smith; assay: antibacterial activity (MIC); format: cell-based; conditions: medium pH 7.2, Japanese Antibiotic Medicament Standard; unit assumed
# Procedure: as §1
# [7] = test system: Escherichia coli 57R/W677; assay: antibacterial activity (MIC), resistant strain; format: cell-based; conditions: medium pH 7.2; strain "producing gentamicin" (footnote 4); unit assumed
# Procedure: as §1
# [8] = test system: Escherichia coli R17 Z-343; assay: antibacterial activity (MIC), resistant strain; format: cell-based; conditions: medium pH 7.2; strain "producing kanamycin" (footnote 1); unit assumed
# Procedure: as §1
# [9] = test system: Escherichia coli R18 KY-8321; assay: antibacterial activity (MIC), resistant strain; format: cell-based; conditions: medium pH 7.2; strain producing gentamicin nucleotidyltransferase and neomycin phosphotransferase II; unit assumed
# Procedure: as §1
# [10] = test system: Escherichia coli R19 KY-8348; assay: antibacterial activity (MIC), resistant strain; format: cell-based; conditions: medium pH 7.2; strain producing gentamicin acetyltransferase; unit assumed
# Procedure: as §1
# [11] = test system: Klebsiella pneumniae 3020 Y60; assay: antibacterial activity (MIC), resistant strain; format: cell-based; conditions: medium pH 7.2; strain "producing gentamicin" (footnote 4); unit assumed
# Procedure: as §1
# Providencia sp. 164 = assay: antibacterial activity (MIC), resistant strain; format: cell-based; conditions: medium pH 7.2; strain producing gentamicin acetyltransferase (footnote 5); unit assumed
# Procedure: as §1
# [12] = test system: Pseudomonas aeruginosa R4 KY8511; assay: antibacterial activity (MIC), resistant strain; format: cell-based; conditions: medium pH 7.2; strain producing gentamicin acetyltransferase; unit assumed
# Procedure: as §1
# [13] = test system: Pseudomonas aeruginosa R9 KY8516; assay: antibacterial activity (MIC), resistant strain; format: cell-based; conditions: medium pH 7.2; strain "producing kanamycin" (footnote 1); unit assumed
# Procedure: as §1
# [14] = format: physicochemical
# Text: That is, Compound I-a is almost decomposed in an alkaline solution with a pH of 10 at room temperature for 2 weeks to form compounds having low activity.
# [15] = strongly alkaline or alkaline conditions; cited from earlier work
# [16] = test system: various microorganisms including resistant strains; conditions: earlier patents; cited from earlier work
Structure (SMILES),antibacterial activity (MIC) [1] [µg/mL],antibacterial activity (MIC) (Escherichia coli 3100) [µg/mL],antibacterial activity (MIC) (Escherichia coli NIHJ-2) [µg/mL],antibacterial activity (MIC) [2] [µg/mL],antibacterial activity (MIC) (Providencia sp. KY3950) [µg/mL],antibacterial activity (MIC) [3] [µg/mL],antibacterial activity (MIC) [4] [µg/mL],antibacterial activity (MIC) [5] [µg/mL],antibacterial activity (MIC) [6] [µg/mL],antibacterial activity (MIC) [7] [µg/mL],antibacterial activity (MIC) [8] [µg/mL],antibacterial activity (MIC) [9] [µg/mL],antibacterial activity (MIC) [10] [µg/mL],antibacterial activity (MIC) [11] [µg/mL],antibacterial activity (MIC) (Providencia sp. 164) [µg/mL],antibacterial activity (MIC) [12] [µg/mL],antibacterial activity (MIC) [13] [µg/mL],further results
"NC[C@H]1O[C@H](O[C@H]2[C@H](O)[C@@H](O[C@H]3O[C@H](CO)[C@@H](O)[C@H](N)[C@H]3O)[C@H](N)C[C@@H]2N)[C@H](O)[C@@H](O)[C@@H]1O [KA, kanamycin A, reference compound]",0.4,3.12,1.56,0.78,12.5,25,3.12,0.4,0.4,100,12.5,> 100,> 100,> 100,> 100,> 100,> 100,–
"COC1C(O)C(N)C(OC2OC(C(C)N)CCC2NC(=O)CN)C(O)C1N(C)C[C@@H](O)CCN (stereo partly drawn) [Compound 6, 4-N-[(S)-4-amino-2-hydroxybutyl]-2'-N-glycylfortimicin B]",0.78,6.25,3.12,1.56,6.25,0.78,6.25,1.56,0.78,6.25,1.56,3.12,3.12,6.25,6.25,50,25,–
"COC1C(O)C(N)C(OC2OC(C(C)N)CCC2NCCN)C(O)C1N(C)C[C@@H](O)CCN (stereo partly drawn) [Compound 7, 4-N-[(S)-4-amino-2-hydroxybutyl]-2'-N-(2-aminoethyl)fortimicin B]",0.4,3.12,3.12,0.78,6.25,0.78,3.12,0.78,1.56,3.12,0.78,3.12,0.78,6.25,12.5,12.5,6.25,–
"COC1C(O)C(N)C(OC2OC(C(C)N)CCC2N)C(O)C1N(C)C(=O)CNC(N)=O (stereo not drawn) [Compound 3, fortimicin C, reference compound]",3.12,12.5,3.12,12.5,25,3.12,25,6.25,12.5,6.25,3.12,12.5,> 100,50,25,> 100,50,stability under strongly alkaline conditions [14]: slightly unstable; stability under alkaline conditions (background) [15]: slightly unstable
"COC1C(O)C(N)C(OC2OC(C(C)N)CCC2N)C(O)C1N(C)C(=O)CN (stereo not drawn) [Compound 2, fortimicin A, reference compound]",0.78,6.25,1.56,1.56,–,0.78,6.25,0.78,1.56,6.25,1.56,3.12,> 100,6.25,3.12,> 100,12.5,stability under strongly alkaline conditions ([14]; strongly alkaline conditions): slightly unstable; stability under alkaline conditions (background) [15]: slightly unstable
"COC1C(O)C(N)C(OC2OC(C(C)N)CCC2NCCN)C(O)C1N(C)CCN (stereo not drawn) [Compound 5, 4,2'-di-N-(2-aminoethyl)fortimicin B]",1.56,6.25,3.12,3.12,12.5,1.56,12.5,1.56,1.56,6.25,3.12,6.25,25,25,50,100,> 100,–
"COC1C(O)C(N)C(OC2OC(C(C)N)CCC2NC(=O)[C@@H](O)CCN)C(O)C1N(C)C[C@@H](O)CCN (stereo partly drawn) [Compound 8, 4-N-[(S)-4-amino-2-hydroxybutyl]-2'-N-[(S)-4-amino-2-hydroxybutyryl]fortimicin B]",0.78,3.12,1.56,1.56,6.25,0.78,6.25,0.78,1.56,3.12,0.78,6.25,3.12,12.5,6.25,100,50,–
"CNC1C(O)C(OC2OC(C(C)N)CCC2N)C(N)C(O)C1OC (stereo not drawn) [Compound 1, fortimicin B]",25,100,> 100,100,> 100,> 100,> 100,> 100,100,> 100,> 100,> 100,> 100,> 100,> 100,> 100,> 100,antibacterial activity (background) [16]: not as good as the other factors
"COC1C(O)C(N)C(OC2OC(C(C)N)CCC2NC[C@@H](O)CCN)C(O)C1N(C)C[C@@H](O)CCN (stereo partly drawn) [Compound 9, 4,2'-di-N-[(S)-4-amino-2-hydroxybutyl]fortimicin B]",0.4,3.12,1.56,1.56,1.56,0.78,3.12,0.78,0.78,3.12,1.56,1.56,6.25,3.12,3.12,100,3.12,–
"COC1C(O)C(N)C(OC2OC(C(C)N)CCC2NCCO)C(O)C1N(C)C[C@@H](O)CCN (stereo partly drawn) [Compound 10, 4-N-[(S)-4-amino-2-hydroxybutyl]-2'-N-(2-hydroxyethyl)fortimicin B]",0.78,3.12,6.25,6.25,12.5,1.56,6.25,1.56,0.78,3.12,3.12,1.56,100,100,50,> 100,50,–
